Assay [1] concerns NF-κB and JNK/MAPK pathways. Put plainly: RNA sequencing of liver: NF-κB and JNK/MAPK pathway genes. The format is in vivo, mice. Particulars: ANIT+AP (200 mg/kg, i.p.) vs ANIT. As to the method: (§1) RNA in liver tissue was isolated from mice treated with ANIT and ANIT+AP (200 mg/kg, i.p.) and purified by TRIzol (Invitrogen, CA). The isolated RNA was quantified using Qubit 2.0 (Thermo Fisher Scientific, USA) following the manufacturer’s protocol. Libraries were prepared using the NEBNext® UltraTM RNA Library Prep Kit for Illumina® (NEB, USA) and sequenced on a Novaseq 6000 (Illumina, USA) at Novogene’s deep sequencing facility. Mapped reads from each sample were assembled using StringTie (v1.3.3b) in a reference-based approach, and featureCounts was used to quantify mapped reads. Differential expression analysis of two conditions/groups was performed using the DESeq2 R package (1.20.0).

The test system of the next assay is FXR. As to the kind of experiment: FXR expression in liver (RNA sequencing, qPCR, Western blot). The format is in vivo, mice. As for the experimental part: as §1
Total RNA from frozen livers of Vehicle, AP (200 mg/kg, i.p.), ANIT (50 mg/kg), and ANIT+AP (200 mg/kg, i.p.) groups was extracted using the Animal Total RNA Isolation Kit (FOREGENE, China). cDNA was synthesized using a Color Reverse Transcription Kit (EZBioscience, Roseville, CA, USA). qPCR was performed using SYBR green/Rox qPCR master mix (EZBioscience, Roseville, CA, USA), according to the manufacturer’s instruction. The expression of target genes was normalized to β-actin, and fold changes were calculated using 2^–ΔΔCT method. For bacterial identification, genomic DNA of fecal flora was isolated using the TIANamp Stool DNA Kit (TIANGEN, Beijing, China) and qPCR was performed. […]

Regarding `C=C1CC[C@@H]2[C@](C)(CO)[C@H](O)CC[C@@]2(C)[C@@H]1C/C=C1/C(=O)OC[C@H]1O` [AP, Andrographolide], the “clustering of NF-κB pathway genes and JNK/MAPK pathway genes” value in assay [1] was “no significant differences”. In the assay with FXR (ANIT+AP (200 mg/kg, i.p.) vs ANIT), the “expression of Fxr (Nr1h4) by RNA-sequencing” value was “significant upregulation”. For the same molecule, in the assay with FXR (after AP treatment (200 mg/kg, i.p.)), the “FXR expression by qPCR and Western blot” value was “upregulation of FXR expression”.

Values taken from article PMC11404609, “Gut microbiota-mediated C-sulfonate metabolism impairs the bioavailability and anti-cholestatic efficacy of andrographolide” (Gut Microbes, 2024).
